Measured values as given in patent US9216964B2, “Hedgehog pathway modulators” (Novartis AG, priority 2008, dated 2015).
Like-named read-outs stand apart in the source and are kept apart here.

System: hedgehog signaling pathway
Assay: Gli-Luc Reporter Assay for Hh Pathway Inhibition (TMHh-12 cells, pTA-8×Gli-Luc reporter)
Format: cell-based, Mouse
Details: Mus musculus
How it was run: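 Mouse TM3 cells stably carrying an 8×Gli-firefly luciferase reporter, in 2% FBS medium; pathway activated with recombinant mouse Shh (8 μg/mL) or Smo agonist, compounds added at varying concentrations for 48 h. Luminescence read; IC50 at 50% signal reduction. Toxicity checked in TM3 cells (CellTiter-Glo) or constitutive-luciferase TM3-Luc cells.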

[1] = TMHh12, enzymatic and cellular assays for the inhibition of hedgehog signaling pathways, read-out: IC50 Ranges
[2] = TMHh12, Ag1.5 1 nM, read-out: Hedgehog Inhibition IC50 (nM) (Ag1.5 1 nM)

Row | SMILES | IC50 [1] [nM] | IC50 [2] [nM]
1 | Cc1ccc(Nc2cccc3c2CCN(CC(F)(F)CO)C3)cc1-c1ccc(C#N)cc1 [Compound 112] | 10 to 100 | –
2 | Clc1ccc(Nc2cccc3c2CCN(CC2CCCCC2)C3)cc1-c1ncc(-c2ccccc2)[nH]1 [Compound 23] | 1 to 10 | 2
3 | CC1(C)OC[C@H](CN2CCC(N3CCc4c(cccc4Nc4ccc(Cl)c(-c5ncc(-c6ccccc6)[nH]5)c4)C3)CC2)O1 [Compound 28] | 1 to 10 | –
4 | Cc1ccc(Nc2cccc3c2CCN(S(C)(=O)=O)C3)cc1C(=O)Nc1ccc(OC(F)(F)F)cc1 [Compound 187] | 1 to 10 | 1.1
5 | CN(C)Cc1ccc(Nc2cccc3c2CCN(S(C)(=O)=O)C3)cc1-c1ccc(C#N)cc1 [Compound 179] | 100 to 1000 | –
6 | Cc1ccc(Nc2cccc3c2CCN(CC(F)(F)CO)C3)cc1-c1ccc(C#N)cn1 [Compound 211] | 0.001 to 1 | –
7 | CNS(=O)(=O)N1CCc2c(cccc2Nc2ccc(Cl)c(-c3ncc(-c4ccccc4)[nH]3)c2)C1 [Compound 25] | 1 to 10 | –
8 | Cc1ccc(Nc2cccc3c2CCN(CC2(C)CC2)C3=O)cc1-c1nc2ccccc2[nH]1 [Compound 127] | 10 to 100 | –
9 | C[C@H](C(=O)O)N1CCc2c(cccc2Nc2ccc(Cl)c(-c3nc(-c4ccccc4)c[nH]3)c2)C1 [Compound 78] | 1 to 10 | –
10 | Cc1ccc(Nc2cccc3c2CCN(CCS(C)(=O)=O)C3)cc1C(=O)Nc1ccccc1 [Compound 246] | 10 to 100 | –
11 | Cc1ccc(Nc2ncnc3c2CCN(C2CCS(=O)(=O)CC2)C3)cc1-c1cc2ccccc2cn1 [Compound 342] | 1 to 10 | –
12 | CCS(=O)(=O)N1CCc2c(ncnc2Nc2ccc(C)c(-c3ccc(C)cn3)c2)C1 [Compound 293] | 0.001 to 1 | –
13 | CC(C)C(=O)N1CCc2c(cccc2Nc2ccc(Cl)c(-c3ncc(-c4ccccc4)[nH]3)c2)C1 [Compound 55] | 1 to 10 | –
14 | CC1(C(=O)N2CCc3c(cccc3Nc3ccc(Cl)c(-c4ncc(-c5ccccc5)[nH]4)c3)C2)CC1 [Compound 73] | 0.001 to 1 | 0.5
15 | CCOc1ccc(-c2cc(Nc3cccc4c3CCN(CCS(C)(=O)=O)C4)ccc2C)nn1 [Compound 294] | 1 to 10 | –

The remaining lines, values ahead:

Row | IC50 [1] [nM] | IC50 [2] [nM] | SMILES
16 | 10 to 100 | – | COc1ccc(-c2cc(Nc3cccc4c3CCN(S(C)(=O)=O)C4)ccc2C)cn1 [Compound 98]
17 | 1 to 10 | – | Cc1ccc(Nc2cccc3c2CCN(S(C)(=O)=O)C3)nc1-c1ccccn1 [Compound 312]
18 | 10 to 100 | 52 | Cc1ccc(Nc2cccc3c2CCN(S(C)(=O)=O)C3)cc1-c1ccc(C#N)nc1 [Compound 129]
19 | 10 to 100 | – | Cc1ccnc(-c2cc(Nc3cccc4c3CCN(S(C)(=O)=O)C4)ccc2C)n1 [Compound 219]
20 | 10 to 100 | – | Cc1ccc(Nc2cccc3c2CCN(S(C)(=O)=O)C3)cc1-c1cc2ccccc2n1C [Compound 152]
21 | 1 to 10 | – | Cc1ccc(-c2nc(Nc3cccc4c3CCN(CCS(C)(=O)=O)C4)ccc2Cl)nc1 [Compound 278]
22 | 100 to 1000 | 263 | CS(=O)(=O)N1CCc2c(cccc2Nc2ccc(Cl)c(-c3nc(-c4ccccc4)co3)c2)C1 [Compound 96]
23 | 0.001 to 1 | 0.7 | Cc1ccc(Nc2cccc3c2CCN(S(C)(=O)=O)C3)cc1C(=O)Nc1ccc(C(F)(F)F)cc1 [Compound 184]
24 | 1 to 10 | – | Cc1ccc(Nc2cccc3c2CCN(S(C)(=O)=O)C3)cc1OCc1ccccc1 [Compound 130]
25 | 10 to 100 | – | Cc1ccc(Nc2cccc3c2CCN(S(C)(=O)=O)C3)cc1OCc1ccccn1 [Compound 215]
